Measurements as given in ChEMBL document CHEMBL5291721, “A preclinical secondary pharmacology resource illuminates target-adverse drug reaction associations of marketed drugs” (Nat Commun, 2023).

Assays:
[1] = target: Acetylcholinesterase (Homo sapiens, UniProt P22303); format: functional
[2] = target: 3',5'-cyclic-AMP phosphodiesterase 4A (Homo sapiens, UniProt P27815); format: functional
[3] = target: T1, Muscarinic acetylcholine receptor M2 (Homo sapiens, UniProt P08172)
T1 sequence (P08172 whole entry): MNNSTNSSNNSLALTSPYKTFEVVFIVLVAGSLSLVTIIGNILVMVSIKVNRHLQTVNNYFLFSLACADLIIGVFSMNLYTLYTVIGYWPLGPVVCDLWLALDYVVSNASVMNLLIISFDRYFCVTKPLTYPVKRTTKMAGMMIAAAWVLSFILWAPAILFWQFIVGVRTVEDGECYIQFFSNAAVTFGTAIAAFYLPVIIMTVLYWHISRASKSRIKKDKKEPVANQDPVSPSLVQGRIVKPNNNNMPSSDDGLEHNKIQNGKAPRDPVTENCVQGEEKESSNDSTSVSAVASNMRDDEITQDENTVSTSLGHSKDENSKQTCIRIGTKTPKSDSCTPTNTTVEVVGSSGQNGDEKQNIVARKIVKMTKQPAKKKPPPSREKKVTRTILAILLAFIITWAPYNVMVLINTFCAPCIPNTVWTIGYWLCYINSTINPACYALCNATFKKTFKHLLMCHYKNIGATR

[4] = target: Sodium-dependent serotonin transporter (Homo sapiens, UniProt P31645)
[5] = target: T2, Thromboxane A2 receptor (Homo sapiens, UniProt P21731); format: functional, cell-based
T2 sequence (P21731 whole entry): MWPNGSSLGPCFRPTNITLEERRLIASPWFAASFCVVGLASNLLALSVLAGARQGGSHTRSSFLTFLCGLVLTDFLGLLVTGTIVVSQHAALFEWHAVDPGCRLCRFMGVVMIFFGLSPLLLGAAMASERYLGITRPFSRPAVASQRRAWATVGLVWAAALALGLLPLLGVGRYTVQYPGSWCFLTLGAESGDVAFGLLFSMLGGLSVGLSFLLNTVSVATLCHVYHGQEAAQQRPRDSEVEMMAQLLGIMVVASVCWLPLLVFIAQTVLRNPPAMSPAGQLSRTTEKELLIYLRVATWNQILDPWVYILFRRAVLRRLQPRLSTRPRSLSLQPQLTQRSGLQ

[6] = target: 5-hydroxytryptamine receptor 2B (Homo sapiens, UniProt P41595); format: functional, cell-based
[7] = target: T3, Histamine H3 receptor (Homo sapiens, UniProt Q9Y5N1)
[8] = target: T4, Muscarinic acetylcholine receptor M1 (Homo sapiens, UniProt P11229); format: functional
T4 sequence (P11229 whole entry): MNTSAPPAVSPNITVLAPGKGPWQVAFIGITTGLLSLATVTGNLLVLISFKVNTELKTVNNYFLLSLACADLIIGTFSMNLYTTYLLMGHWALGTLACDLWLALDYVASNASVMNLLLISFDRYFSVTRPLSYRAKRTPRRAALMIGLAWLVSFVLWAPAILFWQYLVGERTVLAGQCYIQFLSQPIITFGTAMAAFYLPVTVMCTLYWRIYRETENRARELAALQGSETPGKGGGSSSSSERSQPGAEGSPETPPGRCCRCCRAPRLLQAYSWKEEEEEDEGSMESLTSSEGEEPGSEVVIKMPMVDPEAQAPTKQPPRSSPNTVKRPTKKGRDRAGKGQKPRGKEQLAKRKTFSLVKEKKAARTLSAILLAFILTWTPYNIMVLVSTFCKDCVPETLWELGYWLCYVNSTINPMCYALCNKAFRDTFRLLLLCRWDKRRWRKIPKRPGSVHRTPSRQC

[9] = target: T5, Alpha-2B adrenergic receptor (Homo sapiens, UniProt P18089)
T5 sequence (P18089 whole entry): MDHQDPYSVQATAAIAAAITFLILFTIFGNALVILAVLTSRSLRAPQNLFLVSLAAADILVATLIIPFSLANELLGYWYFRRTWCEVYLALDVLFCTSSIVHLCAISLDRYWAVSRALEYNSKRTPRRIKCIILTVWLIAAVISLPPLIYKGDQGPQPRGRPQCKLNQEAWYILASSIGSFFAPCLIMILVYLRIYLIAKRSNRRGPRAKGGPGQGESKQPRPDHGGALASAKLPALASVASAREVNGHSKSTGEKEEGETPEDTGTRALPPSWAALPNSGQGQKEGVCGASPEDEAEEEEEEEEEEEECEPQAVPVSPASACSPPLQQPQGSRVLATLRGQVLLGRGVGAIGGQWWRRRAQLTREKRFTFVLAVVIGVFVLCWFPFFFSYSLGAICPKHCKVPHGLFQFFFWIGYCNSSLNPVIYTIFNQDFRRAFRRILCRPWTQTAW

[10] = target: T3, Histamine H3 receptor; remark: listed apart in the source
[11] = target: 5-hydroxytryptamine receptor 2A (Homo sapiens, UniProt P28223); format: functional, cell-based
[12] = target: Histamine H2 receptor (Homo sapiens, UniProt P25021); format: functional, cell-based
[13] = target: T2, Thromboxane A2 receptor
[14] = target: T6, 5-hydroxytryptamine receptor 1A (Homo sapiens, UniProt P08908); format: functional, cell-based
T6 sequence (P08908 whole entry): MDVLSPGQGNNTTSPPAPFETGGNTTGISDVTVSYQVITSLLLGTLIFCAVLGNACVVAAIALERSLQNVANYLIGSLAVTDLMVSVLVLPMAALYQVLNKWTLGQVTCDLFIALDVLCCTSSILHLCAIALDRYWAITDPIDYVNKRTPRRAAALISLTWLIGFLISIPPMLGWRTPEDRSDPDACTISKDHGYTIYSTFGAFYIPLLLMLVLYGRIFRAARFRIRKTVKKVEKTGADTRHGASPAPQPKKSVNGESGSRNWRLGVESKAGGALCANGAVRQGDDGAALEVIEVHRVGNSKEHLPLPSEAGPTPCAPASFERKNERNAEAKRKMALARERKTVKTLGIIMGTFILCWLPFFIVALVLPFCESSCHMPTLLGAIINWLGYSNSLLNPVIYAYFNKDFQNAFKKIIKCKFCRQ
Note: assay procedure not described here.

Acetylcholinesterase, sequence (P22303 whole entry): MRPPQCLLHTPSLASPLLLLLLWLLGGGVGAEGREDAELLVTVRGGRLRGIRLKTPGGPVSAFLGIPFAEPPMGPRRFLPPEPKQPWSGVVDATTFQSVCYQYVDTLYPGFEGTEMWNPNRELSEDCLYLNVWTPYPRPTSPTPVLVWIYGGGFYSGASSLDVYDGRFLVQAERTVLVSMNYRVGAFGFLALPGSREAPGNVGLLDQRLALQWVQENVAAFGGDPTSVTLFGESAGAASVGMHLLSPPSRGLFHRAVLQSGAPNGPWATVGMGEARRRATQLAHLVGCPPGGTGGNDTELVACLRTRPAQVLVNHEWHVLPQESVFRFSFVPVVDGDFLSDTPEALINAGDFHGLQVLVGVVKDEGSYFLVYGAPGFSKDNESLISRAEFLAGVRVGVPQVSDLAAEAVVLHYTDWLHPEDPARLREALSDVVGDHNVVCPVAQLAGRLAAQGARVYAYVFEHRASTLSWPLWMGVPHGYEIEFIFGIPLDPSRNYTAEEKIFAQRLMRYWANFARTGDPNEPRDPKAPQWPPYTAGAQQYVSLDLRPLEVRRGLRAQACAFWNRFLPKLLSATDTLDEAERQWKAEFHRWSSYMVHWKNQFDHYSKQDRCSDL
5-hydroxytryptamine receptor 2A, sequence (P28223 whole entry): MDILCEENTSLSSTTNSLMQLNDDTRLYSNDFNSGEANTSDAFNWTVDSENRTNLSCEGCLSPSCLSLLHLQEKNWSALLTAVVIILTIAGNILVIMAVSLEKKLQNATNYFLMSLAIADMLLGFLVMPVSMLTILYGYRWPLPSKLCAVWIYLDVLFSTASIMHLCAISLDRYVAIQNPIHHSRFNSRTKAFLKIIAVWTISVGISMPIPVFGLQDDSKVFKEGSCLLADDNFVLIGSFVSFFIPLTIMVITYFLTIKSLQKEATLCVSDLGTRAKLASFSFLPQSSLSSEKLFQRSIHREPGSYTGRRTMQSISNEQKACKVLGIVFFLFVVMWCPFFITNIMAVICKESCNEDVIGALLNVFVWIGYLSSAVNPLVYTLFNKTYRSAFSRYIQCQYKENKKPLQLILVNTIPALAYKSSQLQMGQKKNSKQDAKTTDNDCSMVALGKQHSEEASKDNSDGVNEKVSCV
Sodium-dependent serotonin transporter, sequence (P31645 whole entry): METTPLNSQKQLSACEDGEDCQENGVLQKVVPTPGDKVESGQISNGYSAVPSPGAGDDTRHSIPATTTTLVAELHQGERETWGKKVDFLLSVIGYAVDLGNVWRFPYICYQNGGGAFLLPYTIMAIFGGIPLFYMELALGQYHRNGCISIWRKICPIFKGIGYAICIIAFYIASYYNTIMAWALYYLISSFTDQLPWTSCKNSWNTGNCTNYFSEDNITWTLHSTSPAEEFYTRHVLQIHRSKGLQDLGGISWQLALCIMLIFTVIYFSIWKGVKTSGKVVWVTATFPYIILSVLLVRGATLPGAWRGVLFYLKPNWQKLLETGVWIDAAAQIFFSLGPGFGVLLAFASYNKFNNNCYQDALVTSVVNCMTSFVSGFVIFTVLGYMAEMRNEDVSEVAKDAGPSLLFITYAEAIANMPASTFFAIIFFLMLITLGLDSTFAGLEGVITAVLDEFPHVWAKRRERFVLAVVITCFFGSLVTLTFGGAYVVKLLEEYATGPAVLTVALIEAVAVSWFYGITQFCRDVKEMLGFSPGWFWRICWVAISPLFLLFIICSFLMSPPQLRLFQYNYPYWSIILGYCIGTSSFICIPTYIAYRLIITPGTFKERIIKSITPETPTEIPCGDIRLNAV
3',5'-cyclic-AMP phosphodiesterase 4A, sequence (P27815 whole entry): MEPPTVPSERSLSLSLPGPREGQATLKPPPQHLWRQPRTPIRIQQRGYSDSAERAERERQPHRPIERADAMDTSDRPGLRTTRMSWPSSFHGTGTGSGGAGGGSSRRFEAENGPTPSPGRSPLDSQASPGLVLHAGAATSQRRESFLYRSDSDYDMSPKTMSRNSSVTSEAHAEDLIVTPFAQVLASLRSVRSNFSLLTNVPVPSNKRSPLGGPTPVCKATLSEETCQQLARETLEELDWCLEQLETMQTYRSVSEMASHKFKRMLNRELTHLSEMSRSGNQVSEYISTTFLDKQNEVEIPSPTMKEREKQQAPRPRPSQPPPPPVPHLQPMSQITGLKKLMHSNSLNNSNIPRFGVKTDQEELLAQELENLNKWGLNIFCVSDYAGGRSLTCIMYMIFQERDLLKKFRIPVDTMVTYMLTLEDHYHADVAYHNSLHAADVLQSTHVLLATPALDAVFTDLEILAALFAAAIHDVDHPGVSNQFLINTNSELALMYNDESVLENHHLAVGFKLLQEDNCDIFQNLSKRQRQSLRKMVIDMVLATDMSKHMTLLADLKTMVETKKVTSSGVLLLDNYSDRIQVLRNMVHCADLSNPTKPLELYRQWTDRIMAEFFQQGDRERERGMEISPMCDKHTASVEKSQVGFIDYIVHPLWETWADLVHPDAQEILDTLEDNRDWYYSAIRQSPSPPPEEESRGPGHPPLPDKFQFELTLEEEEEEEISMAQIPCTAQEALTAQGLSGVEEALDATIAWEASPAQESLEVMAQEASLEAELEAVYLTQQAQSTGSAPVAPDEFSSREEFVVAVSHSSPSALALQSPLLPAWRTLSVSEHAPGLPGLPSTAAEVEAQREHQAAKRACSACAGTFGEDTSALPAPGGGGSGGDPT
5-hydroxytryptamine receptor 2B, sequence (P41595 whole entry): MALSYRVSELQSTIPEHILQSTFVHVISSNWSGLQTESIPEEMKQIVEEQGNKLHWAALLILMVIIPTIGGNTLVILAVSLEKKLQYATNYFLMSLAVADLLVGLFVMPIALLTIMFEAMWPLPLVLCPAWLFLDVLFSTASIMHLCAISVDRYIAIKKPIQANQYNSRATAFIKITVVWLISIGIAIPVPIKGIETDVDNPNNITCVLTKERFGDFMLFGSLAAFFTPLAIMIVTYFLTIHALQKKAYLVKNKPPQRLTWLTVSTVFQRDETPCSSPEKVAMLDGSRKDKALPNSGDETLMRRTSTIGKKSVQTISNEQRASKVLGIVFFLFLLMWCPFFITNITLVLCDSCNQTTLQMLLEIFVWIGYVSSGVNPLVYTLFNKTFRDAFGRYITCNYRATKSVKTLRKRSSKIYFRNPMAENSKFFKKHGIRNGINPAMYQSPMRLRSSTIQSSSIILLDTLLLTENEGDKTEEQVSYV
T3 sequence (Q9Y5N1 whole entry): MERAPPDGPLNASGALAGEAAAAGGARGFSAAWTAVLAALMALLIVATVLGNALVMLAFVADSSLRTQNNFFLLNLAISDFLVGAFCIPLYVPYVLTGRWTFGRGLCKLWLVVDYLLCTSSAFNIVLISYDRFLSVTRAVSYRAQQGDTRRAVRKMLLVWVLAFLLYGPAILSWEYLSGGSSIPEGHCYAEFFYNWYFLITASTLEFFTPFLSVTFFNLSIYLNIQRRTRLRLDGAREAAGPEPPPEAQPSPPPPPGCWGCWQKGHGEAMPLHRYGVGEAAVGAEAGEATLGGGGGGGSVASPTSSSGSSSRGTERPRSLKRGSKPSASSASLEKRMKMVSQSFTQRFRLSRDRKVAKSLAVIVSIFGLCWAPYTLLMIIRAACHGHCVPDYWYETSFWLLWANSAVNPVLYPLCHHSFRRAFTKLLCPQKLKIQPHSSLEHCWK
Histamine H2 receptor, sequence (P25021 whole entry): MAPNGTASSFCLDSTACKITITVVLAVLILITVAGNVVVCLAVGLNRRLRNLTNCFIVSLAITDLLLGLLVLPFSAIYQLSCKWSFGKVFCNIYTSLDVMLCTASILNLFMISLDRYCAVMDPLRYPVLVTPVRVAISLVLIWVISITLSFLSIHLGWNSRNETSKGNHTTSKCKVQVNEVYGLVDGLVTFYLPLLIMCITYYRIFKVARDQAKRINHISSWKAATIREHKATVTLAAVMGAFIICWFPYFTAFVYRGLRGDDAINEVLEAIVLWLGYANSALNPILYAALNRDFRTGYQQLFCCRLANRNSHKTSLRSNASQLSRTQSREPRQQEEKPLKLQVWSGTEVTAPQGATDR

SMILES	AC50 [8] [µM]	AC50 [9] [µM]	AC50 [10] [µM]	AC50 [11] [µM]	AC50 [12] [µM]	AC50 [13] [µM]	AC50 [14] [µM]	AC50 [1] [µM]	AC50 [2] [µM]	AC50 [3] [µM]	AC50 [4] [µM]	AC50 [5] [µM]	AC50 [6] [µM]	AC50 [7] [µM]
Cc1cc2c(cc1CC(=O)c1sccc1S(=O)(=O)Nc1onc(C)c1Cl)OCO2 [SITAXENTAN]								> 30	25	> 30	> 30	> 30	> 30	> 30
C(=N\NC1=NCCN1)/c1c2ccccc2c(/C=N/NC2=NCCN2)c2ccccc12 [BISANTRENE]								3.88	> 30	2.74	2.25	> 30	> 30	> 30
O=C1c2c(O)c(=O)ccn2N([C@@H]2c3ccccc3SCc3c2ccc(F)c3F)[C@@H]2COCCN12 [BALOXAVIR]								> 30	> 30	> 30	> 30	> 30	> 30	> 30
COC(=O)[C@@H]1CC2=CC(=O)CC[C@]2(C)[C@@]23O[C@@H]2C[C@@]2(C)[C@@H](CC[C@@]24CCC(=O)O4)[C@H]13 [EPLERENONE]	> 30	> 30	> 30	> 30	> 10	> 30	> 30							
COc1cc(Nc2c(C#N)cnc3cc(OCCCN4CCN(C)CC4)c(OC)cc23)c(Cl)cc1Cl [BOSUTINIB]	> 10	> 10				> 30		15.6	> 30	4.94	3.21	> 10	> 30	
CC(C)NCC(O)COc1ccc(COCCOC(C)C)cc1 (centres undefined) [BISOPROLOL]	> 10	> 10	> 10	> 30	> 10	> 30	> 10							
O=C1c2ccccc2C(=O)C1C(=O)C(c1ccccc1)c1ccccc1 [DIPHENADIONE]								> 30	> 30	> 30	> 30	7.02	> 30	> 30
COC(=O)N[C@H](C(=O)N1CCC[C@H]1c1nc(-c2ccc(-c3ccc(-c4c[nH]c([C@@H]5CCCN5C(=O)[C@@H](NC(=O)OC)C(C)C)n4)cc3)cc2)c[nH]1)C(C)C	> 30	> 30	> 30	> 30	> 30	> 30								
CC(C)Cc1ccc(CC(=O)O)cc1 [IBUFENAC]	> 30	> 30	> 30	> 30			> 30							
COC(=O)N[C@H](C(=O)N[C@@H](Cc1ccccc1)[C@@H](O)CN(Cc1ccc(-c2ccccn2)cc1)NC(=O)[C@@H](NC(=O)OC)C(C)(C)C)C(C)(C)C [ATAZANAVIR]	> 10	> 10	> 10	> 10	> 10	> 30	> 10							
Cc1ccc(O)c2ncccc12 [TILIQUINOL]								> 30	> 30	> 30	> 30	> 30	> 30	> 30
CC(=O)OC[C@H]1O[C@@H](n2ccc(=O)[nH]c2=O)[C@H](OC(C)=O)[C@@H]1OC(C)=O [URIDINE TRIACETATE]								> 30	> 30	> 30	> 30	> 30	> 30	> 30
CC(=O)c1ccc2c(c1)N(CCCN1CCN(CCO)CC1)c1ccccc1S2 [ACETOPHENAZINE]	> 30	0.056	21	0.87			0.007							

Second part, led by results:

AC50 [8] [µM]	AC50 [9] [µM]	AC50 [10] [µM]	AC50 [11] [µM]	AC50 [12] [µM]	AC50 [13] [µM]	AC50 [14] [µM]	SMILES	AC50 [1] [µM]	AC50 [2] [µM]	AC50 [3] [µM]	AC50 [4] [µM]	AC50 [5] [µM]	AC50 [6] [µM]	AC50 [7] [µM]
> 30	> 30	> 30	> 30	> 30			N[C@@H](C(=O)N[C@@H]1C(=O)N2C(C(=O)O)=C(Cl)CS[C@H]12)c1ccccc1 [CEFACLOR ANHYDROUS]							
> 10	> 10		> 10	> 10	> 10	> 10	C[C@@H]1O[C@@H]1P(=O)(O)O [FOSFOMYCIN]							
> 30	> 30	> 30	23			> 30	OCc1cc([C@@H](O)CNCCCCCCOCCOCc2c(Cl)cccc2Cl)ccc1O [VILANTEROL]							
> 30	> 30	> 30	> 30	> 30	> 30	> 30	O=C(CCCCCCC(=O)Nc1ccccc1)NO [VORINOSTAT]							
> 30	> 30	> 30	> 30	> 30	> 30		CCCS(=O)(=O)Nc1ccc(F)c(C(=O)c2c[nH]c3ncc(-c4ccc(Cl)cc4)cc23)c1F [VEMURAFENIB]							
> 10	> 10	> 10	> 10	> 10	> 10	5.6	Cc1ccc(C(=O)c2cc(O)c(O)c([N+](=O)[O-])c2)cc1 [TOLCAPONE]							
> 30	> 30	> 30	13	> 30	11		COc1ccc2c(c1)C(=O)N(CCc1ccc(S(=O)(=O)NC(=O)NC3CCCCC3)cc1)C(=O)C2(C)C [GLIQUIDONE]							
> 10	> 10	> 10	> 10	> 10	> 10	> 10	CC(C(=O)O)c1ccc(C(=O)c2cccs2)cc1 (centres undefined) [SUPROFEN]							
> 30	> 30	> 30	> 30	> 30		> 30	NC(=O)c1ncn([C@@H]2O[C@H](CO)[C@@H](O)[C@H]2O)c1O [MIZORIBINE]							
> 10	> 10		> 10	> 30	> 10	> 10	CN1C(=O)CC(C)(c2ccccc2)C1=O (centres undefined) [METHSUXIMIDE]							
